Molecules are shown by their SMILES.

For the assay, the system named is Colletotrichum spp. Description: Antifungal effect against Colletotrichum infection on wounded skin of pepper fruits (Colby synergy). Format: in vivo. An excerpt: wherein X and Y are the observed antifungal activities (in %) of the individual active ingredients x and y, respectively. If the observed antifungal activity (O in %) of the combination exceeds the expected antifungal activity (E in %) of the combination and the synergy factor O/E is thus >1.0, the combined application of the active ingredients leads to a synergistic antifungal effect. […]
For the treatment, 5 wounds per pepper side were done as previously described. In addition, one wound was done as negative control. Depending on the number of sides of the pepper, 3 to 4 treatments were done per paprika. Per wound 10 μl of treatment was placed on the wound. The treatments were let to dry in a down flow cabinet for about 30 minutes. After drying 5 μl spore suspension at a concentration of 10^7 spores per ml were placed on the wounds. The fungus was isolated from Colletotrichum-infected plant material and identified using techniques known to the person skilled in the art. The pepper were placed as described previously in a transparent container, with the difference that the containers were then placed in a transparent plastic zipper bag. The bags with peppers were placed at room temperature and in the dark for two days. After that the size of the lesions were measured. Assessment of the infection area was 4 days after inoculation. Experiment was performed in 5-fold.
The fungus was isolated from Colletotrichum-infected plant material and identified using techniques known to the person skilled in the art. Assessment of the infection area was performed 5 days after inoculation. Experiment was performed in 5-fold.
The active ingredient imidacloprid was formulated as described in Table 2. Imidacloprid belonging to IRAC Group 4. The fungus was isolated from Colletotrichum-infected plant material and identified using techniques known to the person skilled in the art. Assessment of the infection area was performed 5 days after inoculation. Experiment was performed in 5-fold.
The fungus was isolated from Colletotrichum-infected plant material and identified using techniques known to the person skilled in the art. Assessment of the efficacy was 5 days after inoculation. Experiment was performed in 5-fold.
The fungus was isolated from Colletotrichum-infected plant material and identified using techniques known to the person skilled in the art. Assessment of the infection area was performed 6 days after inoculation. Experiment was performed in 5-fold.
The fungus was isolated from Colletotrichum-infected plant material and identified using techniques known to the person skilled in the art. Assessment of the infection area was performed 4 days after inoculation. Experiment was performed in 5-fold.

The mark [1] stands for this setting: natamycin-insecticide 1:0 ppm, 4 days after inoculation, Table 13.
[2] abbreviates: natamycin-insecticide 1:0 ppm, 5 days after inoculation, Table 15.
[3] abbreviates: natamycin-insecticide 1:0 ppm, 5 days after inoculation, Table 16.
[4] abbreviates: natamycin-insecticide 1:0 ppm, 5 days after inoculation, Table 17.
The mark [5] stands for this setting: natamycin:abamectin 1:0 ppm, 4 days after inoculation, Table 20.
[6] abbreviates: natamycin:fipronil 1:0 ppm, 6 days after inoculation, Table 19.

Take `C[C@@H]1C/C=C/C=C/C=C/C=C/[C@H](O[C@@H]2O[C@H](C)[C@@H](O)[C@H](N)[C@@H]2O)C[C@@H]2O[C@](O)(C[C@@H](O)C[C@H]3O[C@@H]3/C=C/C(=O)O1)C[C@H](O)[C@H]2C(=O)O` [natamycin]: the Avg infected area runs as follows: under setting [1], 10.6 mm2; under setting [2], 30.2 mm2; under setting [3], 30.2 mm2; under setting [4], 22.4 mm2; under setting [5], 13.5 mm2; under setting [6], 24.7 mm^2. Also, the Observed antifungal activity reads like this: under setting [1], 33.8%; under setting [2], 28.6%; under setting [3], 28.6%; under setting [4], 59.5%; under setting [5], 39.8%; under setting [6], 50.7%.

The record behind these values is patent US20250280827A1, “An antifungal composition comprising natamycin and at least one insecticide” (priority 2021, published 2025).
